In US5756776A, “Semi-synthetic taxanes with anti-tumoural activity” (Indena S.p.A., priority 1994, dated 1998):

Assays:
Format in all cases: cell-based
MCF7-ADR (resistant) = assay: cytotoxic effect on MCF7-ADR resistant tumour cell line (comparison with taxol); details: exposure time 72 h, RPMI 1640 + 20 mM HEPES + 2 mM L-glutamine
Procedure: (§1) The products of the present invention were screened for their cytotoxic effect on different tumour cell lines, comparing their action with that of taxol.
(§2) Standard conditions: substrate RPMI 1640 + 20 mM HEPES + 2 mM Lglutamine.

A121 (Human ovarian) = assay: cytotoxic effect on A121 tumour cell line (comparison with taxol); details: exposure time 72 h, RPMI 1640 + 20 mM HEPES + 2 mM L-glutamine
Procedure: as §1, §2

A549 (Human NSCLC) = assay: cytotoxic effect on A549 tumour cell line (comparison with taxol); details: exposure time 72 h, RPMI 1640 + 20 mM HEPES + 2 mM L-glutamine
Procedure: as §1, §2

L1210 (murine leukemia) = assay: cytotoxic effect on L1210 tumour cell line (comparison with taxol); details: exposure time 48 h, RPMI 1640 + 20 mM HEPES + 2 mM L-glutamine
Procedure: as §1, §2

HT-29 (Human colon) = assay: cytotoxic effect on HT-29 tumour cell line (comparison with taxol); details: exposure time 72 h, RPMI 1640 + 20 mM HEPES + 2 mM L-glutamine
Procedure: as §1, §2

MCF7 (Human breast) = assay: cytotoxic effect on MCF7 tumour cell line (comparison with taxol); details: exposure time 72 h, RPMI 1640 + 20 mM HEPES + 2 mM L-glutamine
Procedure: as §1, §2

Row | Molecule | IC50 (MCF7-ADR (resistant); Homo sapiens, NCI/ADR-RES) | IC50 (A121 (Human ovarian)) | IC50 (A549 (Human NSCLC)) | IC50 (L1210 (murine leukemia); Mus musculus) | IC50 (HT-29 (Human colon)) | IC50 (MCF7 (Human breast)) | IC50 (MCF7-ADR (resistant)) | IC50 (L1210 (murine leukemia))
1 | CC(=O)O[C@@]12CO[C@@H]1C[C@H](O)[C@@]1(C)C(=O)[C@@H](O)C3=C(C)[C@@H](OC(=O)[C@H](O)[C@@H](NC(=O)OC(C)(C)C)c4ccccc4)C[C@@](O)([C@@H](OC(=O)c4ccccc4)[C@H]21)C3(C)C [1a, 13-[(2R, 3S)-3-phenyl-2-hydroxy-3-tert-butoxycarbonylamino-propanoyl]-10-epi-10-deacetylbaccatine III] | 130 ± 2.2 nM | 2.8 ± 0.3 nM | 6.9 ± 0.3 nM | 46 ± 2.1 nM | 3.4 ± 0.1 nM | 2.2 ± 0.2 nM | – | –
2 | 13-[(2R, 3S)-3-phenyl-2-hydroxy-3-tert-butoxycarbonylamino-propanoyl]-10-deacetyl-11,12-dihydrobaccatine III [1b] | – | 1.6 ± 0.2 nM | 2.1 ± 0.3 nM | – | 3.6 ± 0.4 nM | 0.8 ± 0.2 nM | 128 ± 6.2 nM | 32 ± 0.1 nM
3 | CC(=O)O[C@@]1([C@@H]2C(C)=C(O)C(=O)C3=C(C)[C@@H](OC(=O)[C@H](O)[C@@H](NC(=O)OC(C)(C)C)c4ccccc4)C[C@@](O)([C@H]2OC(=O)c2ccccc2)C3(C)C)CO[C@@H]1CCO [5a, 13-[(2R, 3S)-3-phenyl-2-hydroxy-3-tert-butoxy-carbonylamino-propanoyl]-C-seco-10-deacetylbaccatine III] | 31.3 nM | 1.9 nM | 3.3 nM | 35 ± 1.2 nM | 3.2 nM | 1.5 nM | – | –
